Assay results from patent US10961539B2, “Promoter system inducing expression by 3-hydroxypropionic acid and method for biological production of 3-hydroxypropionic acid using same” (NOROO IC Co., Ltd., priority 2015, dated 2021).

Tests used:
[1] = system: 3hpdh; assay: RT-PCR relative mRNA level of 3-HP catabolic gene; conditions: FIG. 5
[2] = system: 3hpdh, 3hibdhIV, and mmsadh; assay: Inducer specificity of gene expression (FIGS. 4 and 5); assay type: cell-based, Pseudomonas denitrificans; conditions: for inducer of expression of mmsadh and 3hibdhIV: FIG. 4; for amplification of the genes 3hpdh, 3hibdhIV and mmsadh by the compound: FIGS. 4 and 5

## CC(CO)C(=O)O (centres unmarked) [3HIB, 3-hydroxyisobutyrate]
[1]
  inducer of expression of 3hpdH: acts as an inducer
[2]
  inducer of expression of mmsadh and 3hibdhIV: acts as an inducer
  amplification of the genes 3hpdh, 3hibdhIV and mmsadh by the compound: amplified

## CCC(=O)O [propionic acid]
[2]
  amplification of the genes 3hpdh, 3hibdhIV and mmsadh by the compound: not induced

## CC(=O)O [acetic acid]
[2]
  amplification of the genes 3hpdh, 3hibdhIV and mmsadh by the compound: not induced

## CC(O)C(C)O (centres unmarked) [2,3-butandiol]
[2]
  amplification of the genes 3hpdh, 3hibdhIV and mmsadh by the compound: not induced

## OCCCO [1,3-propanediol]
[2]
  amplification of the genes 3hpdh, 3hibdhIV and mmsadh by the compound: not induced

## CC(C)[C@H](N)C(=O)O [L-valine]
[1]
  inducer of expression of 3hpdH: acts as an inducer
[2]
  inducer of expression of mmsadh and 3hibdhIV: acts as an inducer
  amplification of the genes 3hpdh, 3hibdhIV and mmsadh by the compound: induced

## CC(O)C(=O)O (centres unmarked) [lactic acid]
[2]
  amplification of the genes 3hpdh, 3hibdhIV and mmsadh by the compound: not induced

## CC(O)CC(=O)O (centres unmarked) [3-HB, 3-hydroxybutyrate]
[1]
  inducer of expression of 3hpdH: acts as an inducer
[2]
  inducer of expression of mmsadh and 3hibdhIV: acts as an inducer
  amplification of the genes 3hpdh, 3hibdhIV and mmsadh by the compound: amplified
